Test systems include CCRF-CEM; SK-MEL-5; RPMI-8226; RXF 393; HOP-62; SW-620; OVCAR-8; SK-MEL-28; SK-MEL-2; SF-295; COLO 205; Malme-3M; HT-29; K562; HOP-92; NCI-H23; UACC-62; MOLT-4; CAKI-1; SNB-19.
Holding throughout (test): DTP human tumour cell line panel, 48 h

For orientation: GI50 means the concentration giving 50% growth inhibition.

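Values below derive from 48-hour exposures of cells grown in 96-well plates, with endpoints linearly interpolated between the two concentrations bracketing the appropriate inhibition level. GI50: concentration for 50% inhibition of growth.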 Active and inactive are the calls of the source. Rule as the data show it: active = GI50 up to about 1.1 µM and inactive = higher.

Regarding `Cc1c2cnccc2c(C)c2c1c1ccccc1n2CCCCCCNCc1ccccc1`, the GI50 with CCRF-CEM was 0.489 µM (active); with SK-MEL-5, 2.36 µM (inactive); with RPMI-8226 it was 0.766 µM (active); in the experiment on RXF 393 it was 2.04 µM (inactive); in the experiment with HOP-62, 4.17 µM (inactive); with SW-620, 0.608 µM (active). Besides, the GI50 in the experiment with OVCAR-8 is 0.883 µM (active); in the experiment with SK-MEL-28, 2.38 µM (inactive); with SK-MEL-2 it was 2.22 µM (inactive); in the experiment on SF-295, 1.82 µM (inactive); in the experiment with COLO 205, 1.43 µM (inactive); in the experiment on Malme-3M it was 2.44 µM (inactive). Further, the GI50 in the experiment with HT-29 was 1.36 µM (inactive); with K562, 0.541 µM (active); in the experiment with HOP-92, 2.03 µM (inactive); in the experiment with NCI-H23 it was 1.91 µM (inactive); in the experiment on UACC-62, 2.32 µM (inactive); with MOLT-4, 0.167 µM (active). For the same compound, the results for the GI50 with CAKI-1 and with SNB-19 were 1.89 µM (inactive) and 1.88 µM (inactive), respectively.
Regarding `COC(OC)C1OC(CO)C(n2cc(F)c(=O)[nH]c2=O)C1O` (stereo not given), the GI50 in the experiment with CCRF-CEM, with RPMI-8226, in the experiment with RXF 393, with HOP-62, with SW-620 and in the experiment on OVCAR-8 was > 100 µM (inactive) each time. Besides, the GI50 was > 100 µM (inactive) in the experiment on SK-MEL-28; > 100 µM (inactive) in the experiment on SK-MEL-2; > 100 µM (inactive) with SF-295; 10.7 µM (inactive) with COLO 205; > 100 µM (inactive) in the experiment on HT-29; > 100 µM (inactive) in the experiment with K562. Moreover, the GI50 in the experiment on HOP-92, with NCI-H23, with UACC-62, in the experiment on MOLT-4, with CAKI-1 and in the experiment on SNB-19 was > 100 µM (inactive) throughout.
As for `CC(C)OP(=O)(OC(C)C)/C(I)=N/Nc1ccc([N+](=O)[O-])cc1`, the GI50 with CCRF-CEM, with SK-MEL-5, in the experiment with RPMI-8226, with HOP-62, in the experiment on SW-620 and in the experiment on OVCAR-8 was > 100 µM (inactive) each time. For the same compound, the GI50 in the experiment on SK-MEL-28, in the experiment on SK-MEL-2, in the experiment with SF-295, in the experiment on COLO 205, in the experiment with Malme-3M and in the experiment with HT-29 was > 100 µM (inactive) in each case. Moreover, the GI50 in the experiment with K562, in the experiment with HOP-92, in the experiment with NCI-H23, in the experiment with UACC-62, in the experiment with MOLT-4 and with CAKI-1 was > 100 µM (inactive) each time. Further, the GI50 in the experiment on SNB-19 is > 100 µM (inactive).
In the case of `C=C(C(=O)C(=O)Oc1ccc(Cl)cc1)C(=O)c1ccc(C)cc1`, the GI50 with CCRF-CEM was 22.8 µM (inactive); in the experiment on SK-MEL-5 it was 67.6 µM (inactive); with RPMI-8226 it was 31.9 µM (inactive); in the experiment on RXF 393, 26.4 µM (inactive); in the experiment on HOP-62, > 100 µM (inactive); in the experiment with SW-620, 19.3 µM (inactive). In addition, the GI50 in the experiment on OVCAR-8 is 55.3 µM (inactive); in the experiment with SK-MEL-28, 71.1 µM (inactive); in the experiment on SK-MEL-2, > 100 µM (inactive); in the experiment with SF-295, 76 µM (inactive); in the experiment with COLO 205, > 100 µM (inactive); with Malme-3M, 78.3 µM (inactive). Also, the GI50 with HT-29 was 31.1 µM (inactive); with K562 it was 81.5 µM (inactive); with HOP-92, > 100 µM (inactive); in the experiment on NCI-H23 it was > 100 µM (inactive); in the experiment on UACC-62, 41.4 µM (inactive); in the experiment with MOLT-4 it was 58.3 µM (inactive). In addition, the GI50 was 94.4 µM (inactive) in the experiment with CAKI-1 and 53.2 µM (inactive) in the experiment with SNB-19.
Consider `COc1ccc2c(c1)CC1Cc3ccccc3CCN1C2` (stereo not given), for which the GI50 is 98.6 µM (inactive) in the experiment with CCRF-CEM; 20.2 µM (inactive) in the experiment with SK-MEL-5; 39.5 µM (inactive) in the experiment on RPMI-8226; 25.7 µM (inactive) in the experiment with RXF 393; 6.14 µM (inactive) in the experiment with HOP-62; 76 µM (inactive) in the experiment with SW-620. Also, the GI50 in the experiment on OVCAR-8 is > 100 µM (inactive); with SK-MEL-28, > 100 µM (inactive); in the experiment with SK-MEL-2, 44 µM (inactive); in the experiment on SF-295 it was 29.2 µM (inactive); in the experiment with COLO 205 it was 35.5 µM (inactive); in the experiment with Malme-3M, 42.3 µM (inactive). Also, the GI50 with HT-29 was 32.4 µM (inactive); in the experiment on K562 it was 56.2 µM (inactive); with HOP-92, 27.7 µM (inactive); in the experiment with NCI-H23, 70.3 µM (inactive); in the experiment on UACC-62, 55.1 µM (inactive); with MOLT-4, 80.5 µM (inactive). Besides, the GI50 in the experiment on CAKI-1 is 20.3 µM (inactive); in the experiment with SNB-19 it was 55 µM (inactive).
As to `NC1(C(=O)O)CCCC1` [CYCLOLEUCINE], the GI50 in the experiment on CCRF-CEM, in the experiment on SK-MEL-5, with RPMI-8226, in the experiment with RXF 393, in the experiment on HOP-62 and with SW-620 was > 625 µM (inactive) in each case. Also, the GI50 in the experiment on OVCAR-8, in the experiment on SK-MEL-28, in the experiment with SK-MEL-2, with SF-295, in the experiment on COLO 205 and in the experiment on Malme-3M was > 625 µM (inactive) in each case. Further, the GI50 with HT-29, in the experiment on K562, in the experiment on HOP-92, in the experiment with NCI-H23, in the experiment on UACC-62 and in the experiment with MOLT-4 was > 625 µM (inactive) each time. In addition, the GI50 with CAKI-1 is > 625 µM (inactive); with SNB-19, > 99.1 µM (inactive).
Regarding `COc1nc2ccc(CNc3ccc(C(=O)NC(CCC(=O)O)C(=O)O)cc3)cc2nc1OC` (stereo not given), the GI50 is 23.2 µM (inactive) with CCRF-CEM; > 100 µM (inactive) with SK-MEL-5; > 100 µM (inactive) with RPMI-8226; > 100 µM (inactive) in the experiment on RXF 393; > 100 µM (inactive) in the experiment with HOP-62; 39.6 µM (inactive) in the experiment on SW-620. Moreover, the GI50 with OVCAR-8 was > 100 µM (inactive); in the experiment with SK-MEL-28, > 100 µM (inactive); in the experiment on SK-MEL-2, > 100 µM (inactive); with SF-295, > 100 µM (inactive); with COLO 205, > 100 µM (inactive); in the experiment on Malme-3M, 90.8 µM (inactive). In addition, the GI50 with HT-29 was > 100 µM (inactive); with K562 it was 25.3 µM (inactive); in the experiment with NCI-H23 it was > 100 µM (inactive); in the experiment on UACC-62, > 100 µM (inactive); with MOLT-4, 18.8 µM (inactive); with SNB-19 it was > 100 µM (inactive).
As for `c1ccc(/N=C2\SC3=NCCN3\C2=N/c2ccccc2)cc1`, the GI50 with CCRF-CEM is 2.68 µM (inactive); with SK-MEL-5 it was 15.5 µM (inactive); in the experiment with RPMI-8226, 16.3 µM (inactive); with RXF 393 it was 15.2 µM (inactive); in the experiment with HOP-62 it was 18.7 µM (inactive); in the experiment with OVCAR-8, 25.9 µM (inactive). In addition, the GI50 in the experiment with SK-MEL-28 is 17 µM (inactive); with SK-MEL-2 it was 19.9 µM (inactive); in the experiment on SF-295, 17.5 µM (inactive); in the experiment on COLO 205, 15.5 µM (inactive); with Malme-3M, > 10 µM (inactive); in the experiment with HT-29 it was 16.4 µM (inactive). The GI50 in the experiment with K562 is 4.24 µM (inactive); in the experiment with HOP-92 it was 27.1 µM (inactive); in the experiment on NCI-H23 it was 20.1 µM (inactive); in the experiment with UACC-62 it was 7.38 µM (inactive); in the experiment on MOLT-4, 3.47 µM (inactive); with CAKI-1, 17.9 µM (inactive). In the experiment with SNB-19, the GI50 was 17.1 µM (inactive).
As for `COP(=O)(OC)/C(=C/c1cn(C(C)=O)c2ccccc12)NC(C)=O`, the GI50 is 16.7 µM (inactive) with CCRF-CEM; 22.1 µM (inactive) in the experiment with SK-MEL-5; 12.6 µM (inactive) in the experiment with RPMI-8226; 41.3 µM (inactive) with HOP-62; 18.5 µM (inactive) in the experiment on SW-620; 32.2 µM (inactive) in the experiment on OVCAR-8. Moreover, the GI50 with SK-MEL-28 is 36.4 µM (inactive); in the experiment with SK-MEL-2 it was 2.18 µM (inactive); in the experiment on SF-295 it was 37.2 µM (inactive); in the experiment with COLO 205, 61.4 µM (inactive); with HT-29, 41.6 µM (inactive); in the experiment on K562, 6.75 µM (inactive). Also, the GI50 was > 10 µM (inactive) in the experiment on HOP-92, 37.7 µM (inactive) in the experiment with NCI-H23, > 10 µM (inactive) with MOLT-4 and 40.9 µM (inactive) with CAKI-1.
On to `c1ccc2cc3n[se]nc3cc2c1`, for which the GI50 is 32.5 µM (inactive) in the experiment on CCRF-CEM; 68.1 µM (inactive) in the experiment on SK-MEL-5; > 100 µM (inactive) with RPMI-8226; > 100 µM (inactive) with RXF 393; > 100 µM (inactive) with SW-620; > 100 µM (inactive) in the experiment on OVCAR-8. Besides, the GI50 with SK-MEL-28 is > 100 µM (inactive); in the experiment with SK-MEL-2, > 100 µM (inactive); in the experiment with SF-295 it was 39.4 µM (inactive); with COLO 205 it was > 100 µM (inactive); in the experiment with Malme-3M it was > 100 µM (inactive); with HT-29 it was > 100 µM (inactive). Further, the GI50 in the experiment with K562 is > 100 µM (inactive); in the experiment on NCI-H23 it was 39.7 µM (inactive); in the experiment on UACC-62, > 100 µM (inactive); in the experiment on MOLT-4, 75.5 µM (inactive); in the experiment on CAKI-1, > 100 µM (inactive); with SNB-19, 81.1 µM (inactive).
On to `O=C(O)c1cc2sc(C(=O)O)cc2s1`, for which the GI50 in the experiment on CCRF-CEM, in the experiment with SK-MEL-5, in the experiment with RPMI-8226, in the experiment with RXF 393, in the experiment with HOP-62 and with SW-620 was > 100 µM (inactive) in each case. For the same compound, the GI50 with SF-295, with COLO 205, with Malme-3M, with HT-29, in the experiment with K562 and in the experiment with HOP-92 was > 100 µM (inactive) in each case. Further, the GI50 with NCI-H23, with UACC-62, with MOLT-4, with CAKI-1 and in the experiment with SNB-19 was > 100 µM (inactive) throughout.

The values are drawn from ChEMBL document CHEMBL1201862, “PubChem BioAssay data set” (2004).
